What was measured:
MRSA [1] = assay: MIC of methicillin for MRSA isolates grown with glycine or GBE (Table 1); assay type: cell-based, Staphylococcus aureus
MRSA [2] = assay: Screening on Isosensitest agar with incorporated BTA and 10 μg methicillin discs; assay type: cell-based, Staphylococcus aureus; conditions: BTA 0.01-1.0% in Isosensitest agar; 10 μg methicillin discs; reference MRSA (type strain), OMRSA, EMRSA-1, EMRSA-16
Experimental: To find substances related to GBE that might have increased potency, various substances, including those with additional glycine moieties and benzylates, have been screened. Screening was carried out using Isosensitest agar (Oxoid, UK) into which various levels of potential BTAs were incorporated at levels between 0.01 and 1.0%. The agar with incorporated BTA was then used in the manner of a standard antibiotic sensitivity test using 10 μg methicillin discs. The test organism was inoculated onto the agar surface at a concentration suitable to achieve confluent growth after 18 hours incubation at 30° C. After incubation, zone diameters were compared with that achieved by the control plate (Isosensitest alone) for each test organism.

NCC(=O)O [Glycine, glycine]
64 mg/L: MIC of methicillin (MRSA [1]; L265, glycine 0.02M (0.15%)) | MIC of methicillin (MRSA [1]; L266, glycine 0.02M (0.15%)) | MIC of methicillin (MRSA [1]; L278, glycine 0.02M (0.15%)) | MIC of methicillin (MRSA [1]; L279, glycine 0.02M (0.15%))
8 mg/L: MIC of methicillin (MRSA [1]; L265, glycine 0.2M (1.5%)) | MIC of methicillin (MRSA [1]; L266, glycine 0.2M (1.5%)) | MIC of methicillin (MRSA [1]; L267, glycine 0.2M (1.5%)) | MIC of methicillin (MRSA [1]; L268, glycine 0.2M (1.5%)) | MIC of methicillin (MRSA [1]; L270, glycine 0.02M (0.15%)) | MIC of methicillin (MRSA [1]; L271, glycine 0.02M (0.15%)) | MIC of methicillin (MRSA [1]; L273, glycine 0.02M (0.15%)) | MIC of methicillin (MRSA [1]; L275, glycine 0.2M (1.5%)) | MIC of methicillin (MRSA [1]; L277, glycine 0.02M (0.15%))
4 mg/L: MIC of methicillin (MRSA [1]; CD40 (EMRSA-1), glycine 0.2M (1.5%)) | MIC of methicillin (MRSA [1]; DS09 (EMRSA-1), glycine 0.2M (1.5%)) | MIC of methicillin (MRSA [1]; E15-97 (EMRSA-15), glycine 0.2M (1.5%)) | MIC of methicillin (MRSA [1]; E16-96 (EMRSA-16), glycine 0.2M (1.5%)) | MIC of methicillin (MRSA [1]; JF1-32 (EMRSA-1), glycine 0.2M (1.5%)) | MIC of methicillin (MRSA [1]; L269, glycine 0.2M (1.5%)) | MIC of methicillin (MRSA [1]; L270, glycine 0.2M (1.5%)) | MIC of methicillin (MRSA [1]; L271, glycine 0.2M (1.5%)) | MIC of methicillin (MRSA [1]; L273, glycine 0.2M (1.5%)) | MIC of methicillin (MRSA [1]; L274, glycine 0.2M (1.5%)) | MIC of methicillin (MRSA [1]; L276, glycine 0.2M (1.5%)) | MIC of methicillin (MRSA [1]; L277, glycine 0.2M (1.5%)) | MIC of methicillin (MRSA [1]; L280, glycine 0.2M (1.5%)) | MIC of methicillin (MRSA [1]; L281, glycine 0.2M (1.5%)) | MIC of methicillin (MRSA [1]; L282, glycine 0.2M (1.5%)) | MIC of methicillin (MRSA [1]; L283, glycine 0.2M (1.5%)) | MIC of methicillin (MRSA [1]; L285, glycine 0.2M (1.5%)) | MIC of methicillin (MRSA [1]; L286, glycine 0.2M (1.5%)) | MIC of methicillin (MRSA [1]; L287, glycine 0.2M (1.5%)) | MIC of methicillin (MRSA [1]; L288, glycine 0.2M (1.5%)) | MIC of methicillin (MRSA [1]; L289, glycine 0.2M (1.5%)) | MIC of methicillin (MRSA [1]; L290, glycine 0.2M (1.5%)) | MIC of methicillin (MRSA [1]; L291, glycine 0.2M (1.5%)) | MIC of methicillin (MRSA [1]; L292, glycine 0.2M (1.5%)) | MIC of methicillin (MRSA [1]; L293, glycine 0.2M (1.5%)) | MIC of methicillin (MRSA [1]; L294, glycine 0.2M (1.5%)) | MIC of methicillin (MRSA [1]; MC01 (EMRSA-1), glycine 0.2M (1.5%)) | MIC of methicillin (MRSA [1]; PS3-32 (EMRSA-1), glycine 0.2M (1.5%)) | MIC of methicillin (MRSA [1]; SN31 (EMRSA-1), glycine 0.2M (1.5%)) | MIC of methicillin (MRSA [1]; ST11 (EMRSA-1), glycine 0.2M (1.5%)) | MIC of methicillin (MRSA [1]; SW2-32 (EMRSA-1), glycine 0.2M (1.5%))
0.06 mg/L: MIC of methicillin (MRSA [1]; NCTC 12493, glycine 0.2M (1.5%))
0.12 mg/L: MIC of methicillin (MRSA [1]; NCTC 12493, glycine 0.02M (0.15%))
50%: strains tested achieving the target MIC (MRSA [1]; 0.2 M glycine, said of Table 1)
transformed: transformation of MRSA (methicillin disc zone diameter versus control plate) (MRSA [2])
16 mg/L: MIC of methicillin (MRSA [1]; L269, glycine 0.02M (0.15%)) | MIC of methicillin (MRSA [1]; L272, glycine 0.02M (0.15%)) | MIC of methicillin (MRSA [1]; L274, glycine 0.02M (0.15%)) | MIC of methicillin (MRSA [1]; L276, glycine 0.02M (0.15%)) | MIC of methicillin (MRSA [1]; L278, glycine 0.2M (1.5%)) | MIC of methicillin (MRSA [1]; L280, glycine 0.02M (0.15%))
2 mg/L: MIC of methicillin (MRSA [1]; L272, glycine 0.2M (1.5%)) | MIC of methicillin (MRSA [1]; L279, glycine 0.2M (1.5%)) | MIC of methicillin (MRSA [1]; L284, glycine 0.2M (1.5%))
32 mg/L: MIC of methicillin (MRSA [1]; CD40 (EMRSA-1), glycine 0.02M (0.15%)) | MIC of methicillin (MRSA [1]; DS09 (EMRSA-1), glycine 0.02M (0.15%)) | MIC of methicillin (MRSA [1]; E15-97 (EMRSA-15), glycine 0.02M (0.15%)) | MIC of methicillin (MRSA [1]; E16-96 (EMRSA-16), glycine 0.02M (0.15%)) | MIC of methicillin (MRSA [1]; JF1-32 (EMRSA-1), glycine 0.02M (0.15%)) | MIC of methicillin (MRSA [1]; L267, glycine 0.02M (0.15%)) | MIC of methicillin (MRSA [1]; L268, glycine 0.02M (0.15%)) | MIC of methicillin (MRSA [1]; L275, glycine 0.02M (0.15%)) | MIC of methicillin (MRSA [1]; L281, glycine 0.02M (0.15%)) | MIC of methicillin (MRSA [1]; L282, glycine 0.02M (0.15%)) | MIC of methicillin (MRSA [1]; L283, glycine 0.02M (0.15%)) | MIC of methicillin (MRSA [1]; L284, glycine 0.02M (0.15%)) | MIC of methicillin (MRSA [1]; L285, glycine 0.02M (0.15%)) | MIC of methicillin (MRSA [1]; L286, glycine 0.02M (0.15%)) | MIC of methicillin (MRSA [1]; L287, glycine 0.02M (0.15%)) | MIC of methicillin (MRSA [1]; L288, glycine 0.02M (0.15%)) | MIC of methicillin (MRSA [1]; L289, glycine 0.02M (0.15%)) | MIC of methicillin (MRSA [1]; L290, glycine 0.02M (0.15%)) | MIC of methicillin (MRSA [1]; L291, glycine 0.02M (0.15%)) | MIC of methicillin (MRSA [1]; L292, glycine 0.02M (0.15%)) | MIC of methicillin (MRSA [1]; L293, glycine 0.02M (0.15%)) | MIC of methicillin (MRSA [1]; L294, glycine 0.02M (0.15%)) | MIC of methicillin (MRSA [1]; MC01 (EMRSA-1), glycine 0.02M (0.15%)) | MIC of methicillin (MRSA [1]; PS3-32 (EMRSA-1), glycine 0.02M (0.15%)) | MIC of methicillin (MRSA [1]; SN31 (EMRSA-1), glycine 0.02M (0.15%)) | MIC of methicillin (MRSA [1]; ST11 (EMRSA-1), glycine 0.02M (0.15%)) | MIC of methicillin (MRSA [1]; SW2-32 (EMRSA-1), glycine 0.02M (0.15%))

— patent US20060040871A1, “Bacterial transforming agent” (priority 2003, published 2006)
